This is an account of results in patent publication US9540343B2 (Gilead Sciences, Inc., priority 2011, dated 2017).

A value given as a limit tells only on which side of the number the result lay.

Data set [1] can be described thus: in vitro. The conditions noted are these: human, uninfected MT-4 cells, CC50 (nM), same protocol as Test A, CellTiter-Glo. An outline of the steps: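 Cytoprotection read-out: CellTiter-Glo chemiluminescence after 5 days at 37 °C of HIV-IIIb-infected MT-4 cells (m.o.i. 0.003) with compound in 10-point 3-fold dilutions, quadruplicate, 10% FBS. Cytotoxicity (CC50) measured identically without virus.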
On the technique in general: Cellular ATP, detected with luciferase, serves as a proxy for viable cell number.

For data set [2], the system named is HIV-IIIb. The experiment in a line: Test A: Antiviral assay in MT4 cells. It is filed as cell-based, HIV-1. The note with it: Human immunodeficiency virus 1, IIIB, MT4, 120 h, read-out: % inhibition at 2 μM, percent inhibition of virus-induced cell killing, from dose response curve at 2 uM drug; MT-4 cells infected with HIV-IIIb, 5 days, CellTiter-Glo.

`NC(=O)c1cccc(-c2cccnc2[C@H](Cc2cc(F)cc(F)c2)NC(=O)Cc2c[nH]c3ccc(=O)[nH]c23)c1` [Example 51, (S)-3-(2-(2-(3,5-difluorophenyl)-1-(2-(5-oxo-4,5-dihydro-1H-pyrrolo[3,2-b]pyridin-3-yl)acetamido)ethyl)pyridin-3-yl)benzamide] yielded a CC50 at 5 days in data set [1] of more than 53000 nM. In addition, in data set [2], the inhibition at 2 µM came to 52%.

In data set [1], `CC1CCCc2c(C(F)(F)F)nn(CC(=O)N[C@@H](Cc3cc(F)cc(F)c3)c3ncccc3-c3cccc(C(N)=O)c3)c21` (stereo partly drawn) [Example 52, 3-(2-((1S)-2-(3,5-difluorophenyl)-1-(2-(7-methyl-3-(trifluoromethyl)-4,5,6,7-tetrahydro-1H-indazol-1-yl)acetamido)ethyl)pyridin-3-yl)benzamide] registered a CC50 at 5 days of 13300 nM. Moreover, the inhibition at 2 µM in data set [2] came out at 92%.

Turning to `O=C(Cc1c[nH]c2ccc(O)cc12)N[C@@H](Cc1cc(F)cc(F)c1)c1ncccc1C#CC1CC1` [Example 53, (S)—N-(1-(3-(cyclopropylethynyl)pyridin-2-yl)-2-(3,5-difluorophenyl)ethyl)-2-(5-hydroxy-1H-indol-3-yl)acetamide], half-maximal cytotoxicity in data set [1] (CC50 at 5 days) was put at 28300 nM. Further, the inhibition at 2 µM in data set [2] is 33%.

The compound `NC(=O)c1cc(-c2cccnc2[C@H](Cc2cc(F)cc(F)c2)NC(=O)Cc2c[nH]c3ccc(C(F)(F)F)cc23)ccc1F` [Example 54G, (S)-5-(2-(2-(3,5-difluorophenyl)-1-(2-(5-(trifluoromethyl)-1H-indol-3-yl)acetamido)ethyl)pyridin-3-yl)-2-fluorobenzamide] returned a 50% cytotoxic concentration (CC50) at 5 days in data set [1] of 10300 nM. In data set [2], the inhibition at 2 µM is 111%.

`NC(=O)c1cc(-c2cccnc2[C@H](Cc2cc(F)cc(F)c2)NC(=O)Cc2c[nH]c3ccc(F)cc23)ccc1F` [Example 55F, (S)-5-(2-(2-(3,5-difluorophenyl)-1-(2-(5-fluoro-1H-indol-3-yl)acetamido)ethyl)pyridin-3-yl)-2-fluorobenzamide] displayed a half-maximal cytotoxic concentration (CC50) at 5 days in data set [1] of 21600 nM. In addition, the inhibition at 2 µM in data set [2] worked out at 101%.

As for `NC(=O)c1cc(-c2cccnc2[C@H](Cc2cc(F)cc(F)c2)NC(=O)Cn2ccc3ccc4ccccc4c32)ccc1F` [Example 56B, (S)-5-(2-(1-(2-(1H-benzo[g]indol-1-yl)acetamido)-2-(3,5-difluorophenyl)ethyl)pyridin-3-yl)-2-fluorobenzamide], in data set [1], the half-maximal cytotoxic concentration (CC50) at 5 days is 18900 nM. In addition, the inhibition at 2 µM in data set [2] came to 4%.

In data set [1], `CS(=O)(=O)c1cccc(-c2cccnc2[C@H](Cc2cc(F)cc(F)c2)NC(=O)Cn2nc(C(F)(F)F)c3c2CCCC3)c1` [Example 57B, (S)—N-(2-(3,5-difluorophenyl)-1-(3-(3-(methylsulfonyl)phenyl)pyridin-2-yl)ethyl)-2-(3-(trifluoromethyl)-4,5,6,7-tetrahydro-1H-indazol-1-yl)acetamide] displayed a CC50 at 5 days of 13300 nM. In addition, the inhibition at 2 µM in data set [2] came to 98%.

Take `CCc1c(Br)c(C(F)(F)F)nn1CC(=O)N[C@@H](Cc1cc(F)cc(F)c1)c1ncccc1-c1ccc(F)c(C(N)=O)c1` [Example 58D, (S)-5-(2-(1-(2-(4-bromo-5-ethyl-3-(trifluoromethyl)-1H-pyrazol-1-yl)acetamido)-2-(3,5-difluorophenyl)ethyl)pyridin-3-yl)-2-fluorobenzamide]: in data set [1], the CC50 at 5 days was found to be 10000 nM. Moreover, the inhibition at 2 µM in data set [2] turned out to be 14%.

`Cc1cc(C)c2c(c1)NC(=O)C2CC(=O)N[C@@H](Cc1cccc(F)c1)c1ncccc1-c1ccc(F)c(C(N)=O)c1` (stereo partly drawn) [Example 59E, 5-(2-((1S)-1-(2-(4,6-dimethyl-2-oxoindolin-3-yl)acetamido)-2-(3-fluorophenyl)ethyl)pyridin-3-yl)-2-fluorobenzamide] had a CC50 at 5 days in data set [1] of 45100 nM. In data set [2], the inhibition at 2 µM was 75%.

As to `O=C(Cn1nc(C(F)(F)F)cc1C1CC1)N[C@@H](Cc1cc(F)cc(F)c1)c1ncccc1-c1cnc2[nH]ccc2c1` [Example 61F, (S)—N-(1-(3-(1H-pyrrolo[2,3-b]pyridin-5-yl)pyridin-2-yl)-2-(3,5-difluorophenyl)ethyl)-2-(5-cyclopropyl-3-(trifluoromethyl)-1H-pyrazol-1-yl)acetamide], half-maximal cytotoxicity in data set [1] (CC50 at 5 days) was put at 17900 nM. In addition, the inhibition at 2 µM in data set [2] stood at 74%.

In data set [1], `O=C(Cn1nc(C(F)(F)F)c2c1CCCC2)N[C@@H](Cc1cc(F)cc(F)c1)c1ncccc1-c1cccc(C(=O)NC2CC2)c1` [Example 62, (S)—N-cyclopropyl-3-(2-(2-(3,5-difluorophenyl)-1-(2-(3-(trifluoromethyl)-4,5,6,7-tetrahydro-1H-indazol-1-yl)acetamido)ethyl)pyridin-3-yl)benzamide] had a 50% cytotoxic concentration (CC50) at 5 days of 9980 nM. Moreover, the inhibition at 2 µM in data set [2] came out at 80%.

Turning to `CNC(=O)c1cc(F)cc(-c2cccnc2[C@H](Cc2cc(F)cc(F)c2)NC(=O)Cc2c[nH]c3ccc(F)cc23)c1` [Example 63, (S)-3-(2-(2-(3,5-difluorophenyl)-1-(2-(5-fluoro-1H-indol-3-yl)acetamido)ethyl)pyridin-3-yl)-5-fluoro-N-methylbenzamide], in data set [1], the half-maximal cytotoxic concentration (CC50) at 5 days is 14800 nM. Moreover, the inhibition at 2 µM in data set [2] stood at 22%.

In data set [1], `COc1ccc(-c2cccnc2[C@H](Cc2cc(F)cc(F)c2)NC(=O)Cc2c[nH]c3ccc(F)cc23)cn1` [Example 64, (S)—N-(2-(3,5-difluorophenyl)-1-(6′-methoxy-3,3′-bipyridin-2-yl)ethyl)-2-(5-fluoro-1H-indol-3-yl)acetamide] registered a cytotoxic concentration (CC50) at 5 days of 21100 nM. In addition, the inhibition at 2 µM in data set [2] stood at 88%.

`Cc1cc(-c2cccnc2[C@H](Cc2cc(F)cc(F)c2)NC(=O)Cn2nc(C(F)(F)F)c3c2CCCC3)ccc1F` [Example 65, (S)—N-(2-(3,5-difluorophenyl)-1-(3-(4-fluoro-3-methylphenyl)pyridin-2-yl)ethyl)-2-(3-(trifluoromethyl)-4,5,6,7-tetrahydro-1H-indazol-1-yl)acetamide] gave a CC50 at 5 days in data set [1] of 11100 nM. Further, in data set [2], the inhibition at 2 µM is 33%.

In turn, `O=C(Cc1c[nH]c2ccc(F)cc12)N[C@@H](Cc1cc(F)cc(F)c1)c1ncccc1-c1cccc(C(=O)NC2CC2)c1` [Example 66, (S)—N-cyclopropyl-3-(2-(2-(3,5-difluorophenyl)-1-(2-(5-fluoro-1H-indol-3-yl)acetamido)ethyl)pyridin-3-yl)benzamide] returned a cytotoxic concentration (CC50) at 5 days in data set [1] of 16800 nM. The inhibition at 2 µM in data set [2] is -2%.

As for `O=C(Cc1c[nH]c2ccc(F)cc12)N[C@@H](Cc1cc(F)cc(F)c1)c1ncccc1-c1cccc(OC(F)(F)F)c1` [Example 67, (S)—N-(2-(3,5-difluorophenyl)-1-(3-(3-(trifluoromethoxy)phenyl)pyridin-2-yl)ethyl)-2-(5-fluoro-1H-indol-3-yl)acetamide], it took 6460 nM to reach half-maximal cytotoxicity in data set [1] (CC50 at 5 days). Also, in data set [2], the inhibition at 2 µM is 0%.

In the case of `COC(=O)Nc1ccc(-c2cccnc2[C@H](Cc2cc(F)cc(F)c2)NC(=O)Cn2nc(C(F)F)c3c2C(F)(F)C2CC32)cc1` (stereo partly drawn) [Example 68B, (S)-methyl 4-(2-(1-(3-(difluoromethyl)-5,6-dihydro-4,5-(methano)-6,6-difluoro-cyclopenta[c]pyrazol-1(4H)-ylacetamido)-2-(3,5-difluorophenyl)ethyl)pyridin-3-yl)phenylcarbamate], in data set [1], the cytotoxic concentration (CC50) at 5 days is more than 53200 nM. Moreover, the inhibition at 2 µM in data set [2] stood at 28%.

On to `Cc1ccc(-c2cccnc2[C@H](Cc2cc(F)cc(F)c2)NC(=O)Cc2c[nH]c3ccc(F)cc23)cc1` [Example 69, (S)—N-(2-(3,5-difluorophenyl)-1-(3-p-tolylpyridin-2-yl)ethyl)-2-(5-fluoro-1H-indol-3-yl)acetamide], for which it took 6690 nM to reach half-maximal cytotoxicity in data set [1] (CC50 at 5 days). The inhibition at 2 µM in data set [2] was 84%.

As to `CC(C)NS(=O)(=O)c1ccc(-c2cccnc2[C@H](Cc2cc(F)cc(F)c2)NC(=O)Cn2nc(C(F)F)c3c2C(F)(F)C2CC32)cc1` (stereo partly drawn) [Example 70, (S)—N-(1-(3-(4-(N-isopropylsulfamoyl)phenyl)-pyridin-2-yl)-2-(3,5-difluorophenyl)ethyl)-2-(3-(difluoromethyl)-5,6-dihydro-4,5-(methano)-6,6-difluoro-cyclopenta[c]pyrazol-1(4H)-yl)acetamide], half-maximal cytotoxicity in data set [1] (CC50 at 5 days) was put at 51200 nM. Moreover, the inhibition at 2 µM in data set [2] turned out to be 56%.

The compound `O=C(Cn1nc(C(F)F)c2c1C(F)(F)C1CC21)N[C@@H](Cc1cc(F)cc(F)c1)c1ncccc1-c1ccc(S(=O)(=O)N2CCCCC2)cc1` (stereo partly drawn) [Example 71, (S)—N-(1-(3-(4-((piperidin-1-yl)sulfonyl)phenyl)-pyridin-2-yl)-2-(3,5-difluorophenyl)ethyl)-2-(3-(difluoromethyl)-5,6-dihydro-4,5-(methano)-6,6-difluoro-cyclopenta[c]pyrazol-1(4H)-yl)acetamide] gave a CC50 at 5 days in data set [1] of more than 53200 nM. The inhibition at 2 µM in data set [2] came out at 64%.

`O=C(Cc1c[nH]c2ccc(F)cc12)N[C@@H](Cc1cc(F)cc(F)c1)c1ncccc1-c1ccsc1` [Example 72, (S)—N-(2-(3,5-difluorophenyl)-1-(3-(thiophen-3-yl)pyridin-2-yl)ethyl)-2-(5-fluoro-1H-indol-3-yl)acetamide] yielded a 50% cytotoxic concentration (CC50) at 5 days in data set [1] of 16200 nM. Also, the inhibition at 2 µM in data set [2] came out at 56%.

Compound `Cn1ncc2ccc(-c3cccnc3[C@H](Cc3cc(F)cc(F)c3)NC(=O)Cn3nc(C(F)F)c4c3C(F)(F)C3CC43)cc21` (stereo partly drawn) [Example 73, (S)—N-(1-(3-(1-methylindazole-6-yl)-pyridin-2-yl)-2-(3,5-difluorophenyl)ethyl)-2-(3-(difluoromethyl)-5,6-dihydro-4,5-(methano)-6,6-difluoro-cyclopenta[c]pyrazol-1(4H)-yl)acetamide] registered a CC50 at 5 days in data set [1] of 9790 nM. Also, the inhibition at 2 µM in data set [2] came to 15%.

For orientation: CC50 means the concentration that lowers cell viability or growth by half. Read a low CC50 as greater toxicity to the cells. The inhibition is the drop in the measured response relative to a control, in per cent.
